Key:
[1] = system: EOOF5 cells; experiment: xCELLigence cell index of primary endometrial cells treated with PF and/or drug; assay type: cell-based, human; conditions: for cell growth (% CI), PF and drug compared to PF alone: EOOF5 cells; for cell growth (% CI), PF and drug compared to PF alone / cell viability and growth in the presence of PF: 1% PF; for cell viability and growth in the presence of PF: human endometrial cells
Experimental: (§1) Cell treatment. Ishikawa cells (human endometrial cell line) or EOOF5 cells (primary endometrial cells from a patient without endometriosis, gift from Emory University) were cultured in T75 flasks in complete media (DMEM, 10% FCS, 1% P/S). Cells were treated with 1% PF (control and endo patients) in charcoal stripped media containing 0.1% FCS, for 48 hours. A subset of cells were also treated with GSK126 or EPZ-6438 (FIG. 15), at various concentrations for 24 hours. Cells were collected post-treatment for RNA (PCR) and protein analysis (Western blotting).
xCELLigence. EOOF5 cells (primary endometrial cells) was plated at 10,000 cells per well using xCELLigence technology. Plates that have gold electrodes attached to the bottom were utilized. The electrodes produce electrons, which interact with the solution, completing a circuit. As the number of adhered cells in the plate increases, the more this interferes with circuit completion. Cells were treated with either 1% control or endo PF alone or treated with PF for 24 hours before being treated with either 1 μM GSK, 2.5 μM GSK, or 2.5 μM EPZ. Cells were also treated with drug alone. % Cell Impedance (CI) was calculated compared to CF media.

[2] = system: Ishikawa cells; experiment: Inhibitor study using MTT analysis on Ishikawa cells in the presence of PF; assay type: cell-based, human; conditions: 1% PF
Experimental: It was more than 1000 fold selective for EZH2 over other histone methyltransferases, including both SET-domain-containing and non-SET domain-containing methyltransferases, as shown schematically in FIG. 6A. […] In this regard, an inhibitor study using MTT analysis was conducted according to the schematic of FIG. 7A. Various doses of GSK126 were tested on Ishikawa cells in the presence of PF: 100 nM, 500 nM, 1 μM, 2.5 μM, 5 μM, and 10 μM in DMSO. Cell growth and viability of cells was evaluated rather than just EZH2 expression. (FIGS. 7B-7C) 1 mM and 0.1 mM solutions of GSK126 were also created from serial dilutions of 10 mM GSK126. […] It was somewhat unclear, however, whether that the effect of the drug as the volume of the vehicle (DMSO) could have impacted the results.
as §1

[3] = system: EZH2 expression; experiment: mRNA analysis on Ishikawa cells treated with PF and/or GSK 126; assay type: cell-based, human; conditions: depending on order of drug treatment, compared with control or endo PF alone
Experimental: as §1

[4] = system: global trimethylation; conditions: reactivates silenced PRC2 genes; cited from earlier work

Compound	cell growth (% CI), PF and drug compared to PF alone [1]	cell viability and growth in the presence of PF [1]	cell viability ([2]; 500 nM, vehicle (DMSO) volume could have impacted the results)	cell growth (proliferation) ([2]; GSK126 100 nM-10 μM in DMSO)	EZH2 mRNA expression [3]	cell growth (% CI), drug added after PF pretreatment ([1]; 1% PF first for 24 hours followed by drug for 48 hours)	% CI, drug first followed by PF ([1]; GSK first for 24 hours, then 1% PF for another 48 hours)	global H2K37 trimethylation levels [4]
CCN(c1cc(-c2ccc(CN3CCOCC3)cc2)cc(C(=O)NCc2c(C)cc(C)[nH]c2=O)c1C)C1CCOCC1 [EPZ-6438]	decrease in cell growth	concentration dependent decrease	–	–	–	–	–	–
CC[C@H](C)n1cc(C)c2c(C(=O)NCc3c(C)cc(C)[nH]c3=O)cc(-c3ccc(N4CCNCC4)nc3)cc21 [GSK 126]	decrease in cell growth	concentration dependent decrease	dip in viability	very little proliferation	bidirectional effect	able to lower the cell growth induced by PF	significant decrease in % CI	inhibit global H2K37 trimethylation levels

— patent US11906529B1, “Methods for treatment and diagnosis of endometriosis” (Marshall University Research Corporation, priority 2018, dated 2024)
